# Values of other authors, collected in patent US5496811A, “Submicron emulsions as ocular drug delivery vehicles” (priority 1992, dated 1996).
Compound,solubility in oil (oil),solubility in water,solubility in alkaline solutions (alkaline solutions),stability in alkaline solutions (alkaline solutions)
"CCC1C(=O)OCC1Cc1cncn1C (centres unmarked) [Pilocarpine, 3-ethyldihydro-4-[(1-methyl-1H-imidazole-5-yl)methyl]-2(3H)-furanon]",sparingly soluble in oil,soluble in water,–,–
COc1ccc2c(c1)c(CC(=O)O)c(C)n2C(=O)c1ccc(Cl)cc1 [Indomethacin],–,practically insoluble in water,soluble in alkaline solutions,unstable under these conditions
